Measurements: ChEMBL document CHEMBL3507680, “University of Dundee, Gates Library screen for HepG2 cell viability”

Experiment: Human HepG2 cell viability assay in 384 well format
Format: toxicity, cell-based
Parameters: dose 125 nL, time 70.5 hour; cytotoxicity at 70.5 h: concentration not given beside the values
Conditions: HepG2 cells, read-out: Inhibition

| SMILES | cytotoxicity at 70.5 h |
| --- | --- |
| CCCc1nc(C)cc(NC(C)Cc2cnccn2)n1 (stereo not given) | -10.8% |
| Cc1csc(CNC(=O)CCCc2cccs2)n1 | -1.29% |
| CCc1cc(-c2cc[nH]n2)nc(N2CCCC2)n1 | -7.99% |
| CC(C)CN1CCc2[nH]cnc2C12CCN(C(=O)c1ccc[nH]1)CC2 | -3.93% |
| COc1ccc(CN(Cc2cc(C)no2)C2CC2)cc1 | 0.248% |
| Cc1nn(C)c(C)c1NC(=O)CN1CCCC1c1noc(C2CC2)n1 (stereo not given) | 8.6% |
| CC(C)N(C)S(=O)(=O)c1ccc2c(c1)CCN(C(=O)c1cnccn1)C2 | -5.23% |
| CSCc1cc(C(=O)NC2(C#N)CC2)ccc1F | -0.691% |
| COc1ccc(CN2CC[C@@]3(C2)[C@H](O)CN(C)S3(=O)=O)cc1F | 0.857% |
| Cc1ccccc1S(=O)(=O)N1CCCCC1c1ccn[nH]1 (stereo not given) | -28.4% |
| O=S1(=O)COCCN1CCOc1ccc(F)cc1 | -5.2% |
| COCc1cccc(C(=O)N2CCCN(C(=O)OCC(C)C)CC2)c1 | -5.18% |
| Cc1nn(C)c2nc(N(CCN(C)C)CC3CCCO3)sc12 (stereo not given) | -7.79% |
| COC1CCN(C(=O)c2c(Cl)c3ccccc3n2C)CC1 | -9.88% |
| O=C(CC1CC1)N[C@@H]1CN(C(=O)c2ccsc2)C[C@@H]2CCCO[C@@H]21 | -1.55% |
| COc1ccc(S(=O)(=O)NCCC(O)c2cc(C)oc2C)c(C)c1 (stereo not given) | -5.42% |
| O=C([C@H]1C[C@H]2OCC[C@H]2N(C(=O)C2CCOCC2)C1)N1CCCCO1 | -2.55% |
| Cc1cc(N2CCC(n3cc(CN4CCC[C@@H]4CO)nn3)CC2)ccn1 | -8.62% |
| O=C(C1CCCCC1)N1CCC(n2nc(-c3ccco3)ccc2=O)CC1 | -0.841% |
| COC(=O)[C@@H](NC(=O)c1coc(COc2cccc(F)c2F)n1)C(C)C | -11.7% |
| CC(Oc1ccc(F)cc1)C(=O)N(CC(N)=O)C1CCCC1 (stereo not given) | 0.347% |
| COCCN1CCN(Cc2cccnc2)[C@H]2CS(=O)(=O)C[C@H]21 | 21.4% |
| CCS(=O)(=O)N1CCc2ccc(=O)n(CC3CC3)c2CC1 | -9.39% |
| CN(C)c1ncc(-c2ccncc2)c(CCNC(=O)C2CC2)n1 | -5.57% |
| CCCn1nc(C)c(CNS(=O)(=O)NCc2ccccc2)c1C | -12.7% |
| COC(=O)c1cccn1C1CCN(C(=O)c2ccc(C)[nH]c2=O)CC1 | -5.32% |
| Cn1cnnc1S(=O)(=O)Cc1cc(Cl)c2c(c1)OCO2 | 7.74% |

| SMILES | cytotoxicity at 70.5 h |
| --- | --- |
| Cc1cc(C)nc(N2CCC(C(=O)Nc3n[nH]c(C(C)C)n3)CC2)n1 | -11.5% |
| Cn1cc(C(=O)N2CC[C@@H]3[C@@H]2CCN3Cc2ccncc2)cn1 | -12.1% |
| N#Cc1cnn(C(=O)CCCOc2ccccc2Cl)c1N | 9.75% |
| Cc1nnc(N2CCCC2)c(C(N)=O)c1C | -6.33% |
| CC1(c2ncc(CN(CC(=O)O)Cc3ccccc3)cn2)CCCCO1 (stereo not given) | -7.96% |
| O=C(c1ccsc1)N1C[C@H](N2CCOCC2)[C@@H]2OCCC[C@@H]21 | -1.61% |
| COCCCNC(=O)N1CCCC(c2nncn2C)C1 (stereo not given) | -12.4% |
| O=C(Nc1ccc(OCc2cccc(F)c2)c(F)c1)C1COCCO1 (stereo not given) | -3.19% |
| CCc1nc(CN(C)Cc2nc(-c3ccccc3Cl)oc2C)no1 | -14.3% |
| COCCN1CCCC(Cc2cnc(-c3c(C)nn(C)c3C)cn2)C1 (stereo not given) | -5.51% |
| Cc1ccc(S(=O)(=O)N2C[C@H]3C[C@H](NC(=O)c4cnn(C)c4)[C@H]3C2)cc1 | 33.7% |
| Cn1nnc2c1C(COCC1CC1)CN(Cc1ccoc1)C2 (stereo not given) | -9.19% |
| CCN1CCN(C(=O)c2ccc3c(c2)CCCN3)[C@H]2CS(=O)(=O)C[C@H]21 | -5.32% |
| Cc1cc(C(=O)NCc2ccc(F)cc2)nc(C2CCCN2C)n1 (stereo not given) | -2.73% |
| COc1c(CNCCNC(=O)c2ccc(C)c(F)c2)c(C)nn1C | -4.84% |
| O=C(Nc1cccnc1)C1=NN(c2ccccc2)C(=O)CN1 | 6.02% |
| COC(=O)C(NC(=O)C1CC1)c1cc(F)ccc1F (stereo not given) | -0.233% |
| CC(=O)N1CCC2(CCN(CC(C)C)C2)C1 (stereo not given) | -5.21% |
| O=C(c1cc(COc2ccc3c(c2)OCO3)[nH]n1)N1CCCC(O)C1 (stereo not given) | 0.249% |
| Cc1ccc(CC(=O)N2CCC(c3nnc4n3CCC4)CC2)cc1 | -8.21% |
| c1csc(-c2cc(CN3CCN(c4nccs4)CC3)no2)c1 | -10.2% |
| O=C(O)CCn1nc(C(F)(F)F)c(Cl)c1C1CC1 | -19.2% |
| CC(C)Cc1ncc2c(n1)CN(c1cc(NCCO)nc(N)n1)C2 | -8.13% |
| Cn1ccnc1C(=O)NCc1cnc2n1CCN(CC1CC1)CC2 | -0.996% |
| CC(C)OCc1ncn2c1CN(Cc1ccc(F)cc1)CCC2 | -3.8% |
| CN(C)S(=O)(=O)N1CC[C@]2(C[C@H](OCc3ccncc3)CO2)C1 | -0.865% |
| O=C(NCc1nnc2n1CCCC2)N1CCc2sccc2C1 | -4.27% |

| SMILES | cytotoxicity at 70.5 h |
| --- | --- |
| CCc1ccc(CN(CC)Cc2ccc(S(=O)(=O)NC)cc2)cc1 | -1.74% |
| O=C(Cc1csc(-c2ccoc2)n1)NCCCN1CCCCC1 | -5.46% |
| CCOC(=O)c1coc(N2CCC(C(O)CC(C)C)CC2)n1 (stereo not given) | -1.6% |
| Cc1nn(C)c2c(NCc3ccccn3)nc(C(C)C)nc12 | 20.7% |
| Cc1cccc(OCC(=O)N(C)C2CCN(CC3CCOC3)CC2)c1 (stereo not given) | -9.11% |
| Cc1ncc(-c2ccnc(N3CCC[C@@H]3CO)n2)c(-c2cccnc2)n1 | -3.34% |
| Cc1occc1CNC(=O)N(CCCO)C1CCc2ccccc21 (stereo not given) | -1.74% |
| COc1cc2c(cc1OC)CN(C(=O)NCC1CCCO1)CC2 (stereo not given) | -3.43% |
| Cc1noc(C)c1CN1CC[C@H]2OCC[C@@H](C(=O)N3CCCO3)[C@H]2C1 | -2.47% |
| Cc1cccc(C(C(=O)N2CC(c3cccnc3)C2)N(C)C)c1 (stereo not given) | -0.966% |
| CCCC1CCCN(C(=O)Nc2ccnc(C(=O)N(C)C)c2)CC1 (stereo not given) | -6.22% |
| CSCC(=O)N1CCc2c(cnc(C)c2-c2noc(-c3cscn3)n2)C1 | -15.6% |
| CCC(C(=O)NCc1ccccn1)N(c1cccc(C)c1)S(C)(=O)=O (stereo not given) | -1.44% |
| O=C(C1CCOCC1)N1C[C@H]2CCC[C@@]2(COc2ccccn2)C1 | -11.3% |
| CN(C)C(=O)CN1CCc2onc(-c3ccccc3F)c2C1 | 48.8% |
| CN(CCOc1cccc(S(C)(=O)=O)c1)CC(F)F | -10.4% |
| O[C@H]1CCN(CC2CCOC2)[C@H]1Cc1ccncc1 (stereo not given in full) | -11.6% |
| CNC(=O)c1cc(NC(=O)NC(C)CCc2cccn2C)ccc1F (stereo not given) | 22.7% |
| CCc1nc(C(=O)N2CCN(CC)CC2)nn1-c1ccccc1Cl | 11.3% |
| CCc1nccn1-c1cncc(C2CCCN2)n1 (stereo not given) | -8.79% |
| CN(Cc1cccnc1)C1CC2(CCN(c3ccccn3)CC2)C1 | -8.74% |
| CC(C)(O)CN1CCN(C(=O)c2cccn2Cc2ccncc2)CC1 | -9.5% |
| CCn1cnnc1CNC(=O)CCC(=O)c1ccc2c(c1)OCCO2 | -9.39% |
| CC(C)CNC(=O)NC(=O)C(C)Nc1cccc(CN2CCOC2=O)c1 (stereo not given) | -10.8% |
| COCC(c1cccc(C(F)(F)F)c1)N(C)C(=O)c1cc(C)no1 (stereo not given) | 20% |
| Cc1ccoc1-c1nnc(CNC2CCCN(c3cccnn3)C2)o1 (stereo not given) | 12.6% |
